Measurements published in ChEMBL document CHEMBL1126598, “Novel nonopioid non-antiinflammatory analgesics: 3-(aminoalkyl)- and 3-[(4-aryl-1-piperazinyl)alkyl]oxazolo[4,5-b]pyridin-2(3H)-ones” (J Med Chem, 1993).
Activity calls are given as the source filed them. No cut-off for these calls is given here.

Legend:
Mus musculus [1] = test: General behavior in mice after oral administration (1000 mg/kg) using acute toxicity assay; convulsions; assay type: functional, organism-based
Mus musculus [2] = species on record: Mus musculus; test: Analgesic activity in mice using p-phenylquinone test.; assay type: functional
[3] = Percent mortality in mice after oral administration (1000 mg/kg) using acute toxicity assay; assay type: organism-based; conditions: mouse, in vivo
Rattus norvegicus [4] = test: Anti-inflammatory effect expressed as % inhibition at 100 mg/kg in acute carrageenan paw edema test in rats; assay type: functional
Mus musculus [5] = test: General behavior in mice after oral administration (1000 mg/kg) using acute toxicity assay; Normal; assay type: functional, organism-based
Mus musculus [6] = test: General behavior in mice after oral administration (500 mg/kg) using acute toxicity assay; Convulsions; assay type: functional, organism-based
[7] = Percent mortality in mice after oral administration (500 mg/kg) using acute toxicity assay; assay type: organism-based; conditions: mouse, in vivo
Rattus norvegicus [8] = test: Anti-inflammatory effect expressed as % inhibition at 50 mg/kg in acute carrageenan paw edema test in rats; assay type: functional
Mus musculus [9] = test: General behavior in mice after oral administration (1000 mg/kg) using acute toxicity assay; normal; assay type: functional, organism-based
Mus musculus [10] = test: General behavior in mice after oral administration (1000 mg/kg) using acute toxicity assay; Convulsions; assay type: functional, organism-based
Rattus norvegicus [11] = test: Anti-inflammatory effect expressed as % inhibition at 100 mg/kg in acute carrageenan paw edema test in rats; No inhibition; assay type: functional, organism-based; design: dose 100 mg/kg
Mus musculus [12] = test: General behavior in mice after oral administration (1000 mg/kg) using acute toxicity assay; sedation, decreased muscular tonus; assay type: functional, organism-based
Mus musculus [13] = test: General behavior in mice after oral administration (1000 mg/kg) using acute toxicity assay; decreased locomotor activity, increased muscular tonus; assay type: functional, organism-based
Mus musculus [14] = test: General behavior in mice after oral administration (1000 mg/kg) using acute toxicity assay; Increased muscular tonus; assay type: functional, organism-based
Mus musculus [15] = test: General behavior in mice after oral administration (500 mg/kg) using acute toxicity assay; Increased muscular tonus; assay type: functional, organism-based
Mus musculus [16] = test: General behavior in mice after oral administration (1000 mg/kg) using acute toxicity assay; Increased locomotor activity, convulsive tendency; assay type: functional, organism-based
Rattus norvegicus [17] = test: Anti-inflammatory effect expressed as % inhibition at 50 mg/kg in acute carrageenan paw edema test in rats; No inhibition; assay type: functional, organism-based; design: dose 50 mg/kg
Mus musculus [18] = test: General behavior in mice after oral administration (750 mg/kg) using acute toxicity assay; Convulsions; assay type: functional, organism-based
[19] = Percent mortality in mice after oral administration (750 mg/kg) using acute toxicity assay; assay type: organism-based; conditions: mouse, in vivo
Mus musculus [20] = test: General behavior in mice after oral administration (1000 mg/kg) using acute toxicity assay; decreased muscular tonus; assay type: functional, organism-based
Mus musculus [21] = test: General behavior in mice after oral administration (1000 mg/kg) using acute toxicity assay; decreased locomotor activity, decreased muscular tonus; assay type: functional, organism-based

SMILES | ED50 (Mus musculus [2]) [mg/kg] | mortality [3] [%] | inhibition in vivo at 50 mg/kg (Rattus norvegicus [8]) [%] | also measured
O=c1oc2cccnc2n1CCN1CCCCC1 | > 25 | 66 |  | Behavior (Mus musculus [1]): convulsions; inhibition in vivo at 100 mg/kg (Rattus norvegicus [4]): 21%
Cc1ccc2oc(=O)n(CCN3CCN(c4ccccc4)CC3)c2n1 | > 50 | 0 |  | Behavior (Mus musculus [5]): Normal; inhibition in vivo at 100 mg/kg (Rattus norvegicus [4]): 2%
COc1ccccc1N1CCN(Cn2c(=O)oc3cccnc32)CC1 | > 25 |  | 15 | Behavior (Mus musculus [6]): Convulsions; mortality [7]: 100%
O=c1oc2cccnc2n1CCN1CCN(c2ccc(Oc3ccccc3)cc2)CC1 | > 50 | 0 |  | Behavior (Mus musculus [9]): normal
CN1CCN(CCn2c(=O)oc3cccnc32)CC1 | > 25 | 50 |  | Behavior (Mus musculus [10]): Convulsions; inhibition (Rattus norvegicus [11]): inactive
O=c1oc2ccccc2n1CCN1CCN(c2ccccc2)CC1 | > 50 | 0 | 1 | Behavior (Mus musculus [12]): sedation, decreased muscular tonus
O=c1oc2cccnc2n1CCN1CCN(c2ccc(Cl)cc2)CC1 | > 50 | 0 |  | Behavior (Mus musculus [13]): decreased locomotor activity, increased muscular tonus
O=c1oc2cccnc2n1CCN1CCOCC1 | > 25 | 50 |  | Behavior (Mus musculus [14]): Increased muscular tonus; inhibition in vivo at 100 mg/kg (Rattus norvegicus [4]): 7%
O=c1oc2cccnc2n1CN1CCN(c2cccc(C(F)(F)F)c2)CC1 | 3.6 |  | 25 | Behavior (Mus musculus [15]): Increased muscular tonus; mortality [7]: 50%
CCN(CC)CCn1c(=O)oc2cccnc21 | > 25 | 83 |  | Behavior (Mus musculus [10]): Convulsions
O=C(OCC(O)CO)c1ccccc1Nc1ccnc2cc(Cl)ccc12 (stereo not drawn) [GLAFENINE] | 29.3 | 30 | 36 | Behavior (Mus musculus [5]): inactive
COc1ccccc1N1CCN(CCn2c(=O)oc3cccnc32)CC1 | > 50 | 0 |  | Behavior (Mus musculus [5]): Normal; inhibition (Rattus norvegicus [11]): inactive
O=c1oc2cccnc2n1CN1CCN(c2ccccc2)CC1 | 5.9 |  | 11 | Behavior (Mus musculus [6]): Convulsions; mortality [7]: 70%
O=c1oc2cccnc2n1CCN1CCN(c2cccc(C(F)(F)F)c2)CC1 | 11.4 | 0 |  | Behavior (Mus musculus [16]): Increased locomotor activity, convulsive tendancy; inhibition (Rattus norvegicus [17]): inactive
O=c1oc2cccnc2n1CCCCN1CCN(c2ccccc2)CC1 | > 25 | 100 |  | Behavior (Mus musculus [10]): Convulsions
O=c1oc2cccnc2n1CN1CCN(c2cccc(Cl)c2)CC1 | 10.5 |  | 27 | Behavior (Mus musculus [6]): Convulsions; mortality [7]: 100%
O=c1oc2cccnc2n1CCN1CCN(c2ccccc2)CC1 | 19.4 | 0 | 13 | Behavior (Mus musculus [5]): Normal
O=c1oc2cc(Br)cnc2n1CCN1CCN(c2ccccc2)CC1 | 34.1 | 0 |  | Behavior (Mus musculus [9]): normal
O=c1oc2cccnc2n1CN1CCN(c2ccc(F)cc2)CC1 | 3.5 |  |  | Behavior (Mus musculus [6]): Convulsions; mortality [7]: 100%
COc1ccc2c3c1O[C@H]1[C@@H](O)C=C[C@H]4[C@@H](C2)N(C)CC[C@@]341 [CODEINE] | 9.7 |  | 20 | Behavior (Mus musculus [18]): Active; mortality [19]: 40%
O=c1oc2cccnc2n1CN1CCN(c2ccc(Cl)cc2)CC1 | 10.6 |  | 23 | Behavior (Mus musculus [6]): Convulsions; mortality [7]: 90%
O=c1oc2cccnc2n1CCCN1CCN(c2cccc(C(F)(F)F)c2)CC1 | 22 | 50 |  | Behavior (Mus musculus [1]): convulsions; inhibition (Rattus norvegicus [17]): inactive
O=c1oc2ccccc2n1CCN1CCN(c2cccc(C(F)(F)F)c2)CC1 | 30.2 | 0 |  | Behavior (Mus musculus [5]): Normal; inhibition (Rattus norvegicus [17]): inactive
O=c1oc2cccnc2n1CCN1CCN(c2ccc(F)cc2)CC1 | 41.3 | 0 | 16 | Behavior (Mus musculus [20]): decreased muscular tonus
O=c1oc2cccnc2n1CN1CCN(c2ccccc2Cl)CC1 | 22.2 |  |  | Behavior (Mus musculus [6]): Convulsions; mortality [7]: 100%; inhibition (Rattus norvegicus [17]): inactive
O=c1oc2cccnc2n1CCCN1CCN(c2ccccc2)CC1 | 15.5 | 10 | 16 | Behavior (Mus musculus [21]): decreased locomotor activity, decreased muscular tonus
